These results are taken from EP4635969A1, “NOVEL GLUCOCORTICOID, METHOD FOR PREPARING SAME, AND USE THEREOF” (Tianjin Pharmaceutical Biotechnology Co., Ltd., priority 2022, dated 2024).

Like-named read-outs stand apart in the source and are kept apart here.

Assay type in all cases: cell-based
Assay [1] concerns the target T1, mineralocorticoid receptor (MR) (Homo sapiens, UniProt P08235).
T1 sequence (P08235 726-984): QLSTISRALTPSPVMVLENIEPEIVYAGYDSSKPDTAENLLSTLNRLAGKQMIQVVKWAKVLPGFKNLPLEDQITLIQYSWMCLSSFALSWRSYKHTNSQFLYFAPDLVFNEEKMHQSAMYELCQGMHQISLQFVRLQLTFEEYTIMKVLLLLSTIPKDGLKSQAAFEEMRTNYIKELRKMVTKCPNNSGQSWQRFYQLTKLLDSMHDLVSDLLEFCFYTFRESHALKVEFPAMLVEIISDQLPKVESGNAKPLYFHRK
Put plainly: Assay for agonist activity on mineralocorticoid receptor (luciferase reporter, HEK293 cells transfected with pBIND-MR plasmid). Conditions: for EC50: EC50 of agonist activity, HEK293 reporter cells, top concentration 50 µM, read-out: Nuclear receptor enzyme activity (nM) MR; for Target selectivity MR/GR: ratio of EC50 values. The procedure:
(§1) Pharmacological Example 2: Assay for Agonist Activity on Mineralocorticoid Receptor (MR) and Progesterone Receptor (PR)
(§2) Test compound stock solutions: The test compounds (compounds 4, 5, 7, 8, 9, 11, 13, 16, 17, 18, 22, 23, 24, 34, 35, 36, 38, 41, 45, 47, 53, 55, and 59) were accurately weighed, dissolved in DMSO to prepare stock solutions at a concentration of 20 mM, and stored at -20 °C.
(§3) The test compounds were subjected to a 4-fold serial dilution starting from an initial concentration of 50 µ M, generating a 12-point concentration gradient with duplicate wells for each concentration. The blank control consisted of 0.1% DMSO.
(§4) The HEK293 stable cell lines […] transfected with mineralocorticoid receptor (MR) and progesterone receptor (PR) (ICE Bioscience, Lot No. TYP-20220819, TPJ-20220812) were cultured in Dulbecco's Modified Eagle Medium (DMEM) supplemented with 10% fetal bovine serum (FBS) and 200 µ g/ml Hygromycin B in a cell incubator containing 5% CO2 at 37 °C. The spent medium was aspirated, and the cells were washed once with phosphate-buffered saline (PBS). Then, 1 mL of TrypLE™ Express solution was added, and the cells were incubated at 37 °C for approximately 2 min. When the cells detached from the bottom of the cell culture dish, approximately 5 mL of pre-warmed complete medium at 37 °C was added. The cell suspension was gently pipetted with a pipette to dissociate clumped cells. The cell suspension was transferred to a sterile centrifuge tube and centrifuged at 1000 rpm for 5 min to pellet the cells for experiments or subculture..
(§5) HEK293 cells were digested and seeded into 6-cm culture dishes. The pBIND-MR and pBIND-PR plasmids were separately transfected into the HEK293 cells using a transfection reagent, resulting in HEK293 cells successfully transfected with the pBIND-MR and pBIND-PR plasmids, respectively. The cells were resuspended in phenol red-free DMEM medium containing 5% charcoal-stripped serum, counted, and then seeded into 96-well plates. The test compounds were added, and the plates were then incubated in an incubator. The luminescence signal values were measured using a multimode microplate reader following the instructions of the luciferase assay kit. The EC50 values of each test compound were calculated using the nonlinear fitting formula with GraphPad Prism 8.0 software.
Background: In a reporter assay the amount or activity of a reporter protein is the signal.

For assay [2], the target named is T2, progesterone receptor (PR) (Homo sapiens, UniProt P06401).
T2 sequence (P06401 678-933): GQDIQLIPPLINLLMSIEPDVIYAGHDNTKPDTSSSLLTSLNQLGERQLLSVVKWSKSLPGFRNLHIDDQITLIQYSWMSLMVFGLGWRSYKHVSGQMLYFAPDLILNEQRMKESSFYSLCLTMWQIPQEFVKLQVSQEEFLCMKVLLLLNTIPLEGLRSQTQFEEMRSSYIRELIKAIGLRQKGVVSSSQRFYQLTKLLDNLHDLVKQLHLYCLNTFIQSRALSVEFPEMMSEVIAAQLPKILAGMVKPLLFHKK
Put plainly: Assay for agonist activity on progesterone receptor (luciferase reporter, HEK293 cells transfected with pBIND-PR plasmid). Conditions: for EC50: EC50 of agonist activity, HEK293 reporter cells, top concentration 50 µM, read-out: Nuclear receptor enzyme activity (nM) PR; for Target selectivity PR/GR: ratio of EC50 values. As for the experimental part:
as §1, §2, §3, §4, §5

The target in assay [3] is T3, glucocorticoid receptor (GR) (Homo sapiens, UniProt P04150).
T3 sequence (P04150 521-777): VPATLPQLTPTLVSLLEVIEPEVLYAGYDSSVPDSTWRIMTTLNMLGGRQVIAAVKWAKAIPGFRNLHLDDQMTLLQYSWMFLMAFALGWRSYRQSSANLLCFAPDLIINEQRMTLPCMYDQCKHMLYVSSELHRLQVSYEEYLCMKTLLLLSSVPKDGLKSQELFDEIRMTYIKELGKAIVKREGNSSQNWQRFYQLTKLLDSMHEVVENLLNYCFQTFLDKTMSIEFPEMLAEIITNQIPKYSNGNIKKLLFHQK
Kind of assay: Assay for agonist activity on glucocorticoid receptor (luciferase reporter, HEK293 cells transfected with pBIND-GR plasmid). A digest of the protocol: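 HEK293 cells transfected with pBIND-GR, seeded in phenol red-free DMEM with 5% charcoal-stripped serum, then exposed to compounds in a 10-point, 4-fold dilution series from 10 µM, in duplicate. Luciferase luminescence read after incubation; EC50 from nonlinear fit. Vehicle blank: 0.1% DMSO.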

The mark [4] stands for this setting: EC50 of agonist activity, HEK293 reporter cells, read-out: Nuclear receptor enzyme activity (nM) GR.
[5] abbreviates: HEK293 cells transfected with pBIND-GR, luciferase signal, read-out: GR agonist EC50.

Regarding `C[C@]12C=CC(=O)C=C1CC[C@H]1[C@@H]3C[C@H]4OC(c5ccc(SC6CCOC6=O)cc5)O[C@@]4(C(=O)CO)[C@@]3(C)C[C@H](O)[C@@]12F` (stereo partly drawn) [Compound 41, (6aS,6bR,7S,8aS,8bS,11aR,12aS,12bS)-6b-Fluoro-7-hydroxy-8b-(2-hydroxyacetyl)-6a,8a-dimethyl-10-(4-((2-oxotetrahydrofuran-3-yl)thio)phenyl)-1,2,6a,6b,7,8,8a,8b,11a,12,12a,12b-dodecahydr o-4H-naphtho[2',1':4,5]indeno[1,2-d][1,3]dioxol-4-one], the EC50 in assay [1] is over 50000 nM; in assay [2] it was over 50000 nM; in assay [3] (setting [4]), 6.19 nM; in assay [3] (setting [5]), 6.19 nM. For the same compound, the “Target selectivity MR/GR” value in assay [1] is over 8077. Moreover, the “Target selectivity PR/GR” value in assay [2] is over 8077.
Take `C[C@]12C=CC(=O)C=C1CC[C@H]1[C@@H]3C[C@H]4OC(c5ccc(CNC6CCOC6=O)cc5)O[C@@]4(C(=O)CO)[C@@]3(C)C[C@H](O)[C@@]12F` (stereo partly drawn) [Compound 18, (6aS,6bR,7S,8aS,8bS,11aR,12aS,12bS)-6b-Fluoro-7-hydroxy-8b-(2-hydroxyacetyl)-6a,8a-dimethyl-10-(4-(((2-oxotetrahydrofuran-3-yl)amino)methyl)phenyl)-1,2,6a,6b,7,8,8a,8b,11a,12,12a,12b-dodecahydro-4H-naphtho[2',1':4,5]indeno[1,2-d][1,3]dioxol-4-one]: the EC50 is over 50000 nM in assay [1], over 50000 nM in assay [2], 1.62 nM in assay [3] (setting [4]) and 1.62 nM in assay [3] (setting [5]). The “Target selectivity MR/GR” value in assay [1] is on record as > 3.1×10^4. For the same compound, the “Target selectivity PR/GR” value in assay [2] is reported as > 3.1×10^4.
Consider `C[C@]12C=CC(=O)C=C1CC[C@H]1[C@@H]3C[C@H]4OC(C5CCC(SC6CCOC6=O)CC5)O[C@@]4(C(=O)CO)[C@@]3(C)C[C@H](O)[C@@]12F` (stereo partly drawn) [Compound 45, (6aS,6bR,7S,8aS,8bS,11aR,12aS,12bS)-6b-Fluoro-7-hydroxy-8b-(2-hydroxyacetyl)-6a,8a-dimethyl-10-(4-((2-oxotetrahydrofuran-3-yl)thio)cyclohexyl)-1,2,6a,6b,7,8,8a,8b,11a,12,12a,12b-dodeca hydro-4H-naphtho[2',1':4,5]indeno[1,2-d][1,3]dioxol-4-one], for which the EC50 in assay [1] is over 50000 nM; in assay [2] it was over 50000 nM; in assay [3] (setting [4]) it was 1.62 nM; in assay [3] (setting [5]), 1.62 nM. Besides, in assay [1], the “Target selectivity MR/GR” value is reported as > 3.1×10^4. Also, the “Target selectivity PR/GR” value in assay [2] was > 3.1×10^4.
Take `C[C@]12C=CC(=O)C=C1[C@@H](F)C[C@H]1[C@@H]3C[C@H]4OC(c5ccc(COC6CCOC6=O)cc5F)O[C@@]4(C(=O)CO)[C@@]3(C)C[C@H](O)[C@@]12F` (stereo partly drawn) [Compound 7, (2S,6aS,6bR,7S,8aS,8bS,11aR,12aS,12bS)-2,6b-Difluoro-10-(2-fluoro-4-(((2-oxotetrahydrofuran-3-yl)oxy)methyl)phenyl)-7-hydroxy-8b-(2-hydroxyacetyl)-6a,8a-dimethyl-1,2,6a,6b,7,8,8a,8b,11a, 12,12a,12b-dodecahydro-4H-naphtho[2',1':4,5]indeno[1,2-d][1,3]dioxol-4-one]: the EC50 in assay [1] is over 50000 nM; in assay [2] it was over 50000 nM; in assay [3] (setting [4]), 1.21 nM; in assay [3] (setting [5]), 1.21 nM. Further, in assay [1], the “Target selectivity MR/GR” value is on record as > 4.1×10^4. Besides, the “Target selectivity PR/GR” value in assay [2] is reported as > 4.1×10^4.
Turning to `C[C@]12C=CC(=O)C=C1CC[C@H]1[C@@H]3C[C@H]4OC(c5ccc(CNC6CCOC6=O)cc5)O[C@@]4(C(=O)CO)[C@@]3(C)C[C@H](O)[C@@]12Cl` (stereo partly drawn) [Compound 24, (6aS,6bR,7S,8aS,8bS,11aR,12aS,12bS)-6b-Chloro-7-hydroxy-8b-(2-hydroxyacetyl)-6a,8a-dimethyl-10-(4-(((2-oxotetrahydrofuran-3-yl)amino)methyl)phenyl)-1,2,6a,6b,7,8,8a,8b,11a,12,12a,12b-dodecahydro-4H-naphtho[2',1':4,5]indeno[1,2-d][1,3]dioxol-4-one], the EC50 in assay [1] was over 50000 nM; in assay [2], over 50000 nM; in assay [3] (setting [4]) it was 1.12 nM; in assay [3] (setting [5]) it was 1.12 nM. Moreover, the “Target selectivity MR/GR” value in assay [1] is > 4.5×10^4. Moreover, the “Target selectivity PR/GR” value in assay [2] is > 4.5×10^4.
On to `C[C@]12C=CC(=O)C=C1CC[C@H]1[C@@H]3C[C@H]4OC(c5ccc(CS(=O)(=O)C6CCOC6=O)cc5)O[C@@]4(C(=O)CO)[C@@]3(C)C[C@H](O)[C@@]12F` (stereo partly drawn) [Compound 59, (6aS,6bR,7S,8aS,8bS,11aR,12aS,12bS)-6b-Fluoro-7-hydroxy-8b-(2-hydroxyacetyl)-6a,8a-dimethyl-10-(4-(((2-oxotetrahydrofuran-3-yl)sulfonyl)methyl)phenyl)-1,2,6a,6b,7,8,8a,8b,11a,12,12a,12b-dodecahydro-4H-naphtho[2',1':4,5]indeno[1,2-d][1,3]dioxol-4-one], for which the EC50 in assay [1] is over 50000 nM; in assay [2], over 50000 nM; in assay [3] (setting [4]) it was 4.01 nM; in assay [3] (setting [5]), 4.01 nM. In assay [1], the “Target selectivity MR/GR” value is > 1.2×10^4. Moreover, the “Target selectivity PR/GR” value in assay [2] is reported as > 1.2×10^4.
Turning to `C[C@]12C=CC(=O)C=C1CC[C@H]1[C@@H]3C[C@H]4OC(c5cnc(CSC6CCOC6=O)nc5)O[C@@]4(C(=O)CO)[C@@]3(C)C[C@H](O)[C@@]12F` (stereo partly drawn) [Compound 53, (6aS,6bR,7S,8aS,8bS,11aR,12aS,12bS)-6b-Fluoro-7-hydroxy-8b-(2-hydroxyacetyl)-6a,8a-dimethyl-10-(2-(((2-oxotetrahydrofuran-3-yl)thio)methyl)pyrimidin-5-yl)-1,2,6a,6b,7,8,8a,8b,11a,12,12a, 12b-dodecahydro-4H-naphtho[2',1':4,5]indeno[1,2-d][1,3]dioxol-4-one], the EC50 was over 50000 nM in assay [1], over 50000 nM in assay [2], 8.31 nM in assay [3] (setting [4]) and 8.31 nM in assay [3] (setting [5]). Moreover, in assay [1], the “Target selectivity MR/GR” value was determined as 6017. Moreover, the “Target selectivity PR/GR” value in assay [2] amounted to 6017.
Turning to `C[C@]12C=CC(=O)C=C1[C@@H](F)C[C@H]1[C@@H]3C[C@H]4OC(C5CCN(C(=O)C6COC(=O)C6)CC5)O[C@@]4(C(=O)SCF)[C@@]3(C)C[C@H](O)[C@@]12F` (stereo partly drawn) [Compound 4, S-(Fluoromethyl) (2S,6aS,6bR,7S,8aS,8bS,11aR,12aS,12bS)-2,6b-difluoro-7-hydroxy-6a,8a-dimethyl-4-oxo-10-(1-(5-oxotetrahydrofuran-3-carbonyl)piperidin-4-yl)-1,2,4,6a,6b,7,8,8a,11a,12,12a,12b-dodecahydro-8bH-naphtho[2',1':4,5]indeno[1,2-d][1,3]dioxole-8b-carbothioate], the EC50 in assay [1] is over 50000 nM; in assay [2], over 50000 nM; in assay [3] (setting [4]), 11.8 nM; in assay [3] (setting [5]) it was 11.8 nM. Further, the “Target selectivity MR/GR” value in assay [1] was over 4223. Also, in assay [2], the “Target selectivity PR/GR” value was over 4223.
